Source: patent publication US12409201B2, “Care composition and use thereof” (priority 2020, dated 2025)

Tests used:
[1] = system: Rat basophilic leukemia cells (RBL-2H3); experiment: MTT cell survival rate of RBL-2H3; type: cell-based; conditions: positive control group, concentration not given; RBL-2H3, MTT
Procedure: (§1) Rat basophilic leukemia cells (RBL-2H3) is seeded in a 96-well cell culture plate, with each well containing 5*10^4 cells. Cells are incubated in a 37-degree Celsius incubator with 5% CO2 overnight to allow attachment to the culture plate. Replace the culture medium with culture medium containing the care composition (hereinafter referred to as AMDS) of different dilution rates (1/1600, 1/800, 1/400, 1/200, and 1/100) and control groups (a blank control group and a positive control group, which is incubated in culture medium containing quercetin). After 30 minutes of incubation, A23187 (1 μg/mL) is added and allowed reaction for an hour. β-hexosaminidase level is analyzed by applying cell culture supernatant to enzyme-linked immunosorbent assay (ELISA). Replace the culture medium with that containing MTT (0.5 mg/mL), followed with 2-hour incubation. Discard the MTT-medium solution, and add DMSO (150 μL/well) to each well. Let sit in room temperature for 10 minutes, allowing the purple formazan to fully dissolve. The cell survival rate is calculated and determined by detecting the optical density (O.D.) at wavelength 570 in a spectrophotometer. Cell survival rate (%)=(sample OD570/blank control group OD570)*100%. […] The lower the β-hexosaminidase, the greater the anti-allergy effect. […]

[2] = system: Rat basophilic leukemia cells (RBL-2H3); experiment: β-hexosaminidase level (ELISA) in A23187-stimulated RBL-2H3 cells, anti-allergy effect; type: cell-based; conditions: positive control group, concentration not given; RBL-2H3, A23187 1 μg/mL; blank control = 100
Procedure: as §1

SMILES: O=c1c(O)c(-c2ccc(O)c(O)c2)oc2cc(O)cc(O)c12 [quercetin]
- Cell survival rate (%) [1]: 87.97%
- β-hexosaminidase (%) [2]: 1.8%
